Results taken from paper PMC12516397 (ACS Medicinal Chemistry Letters, 2025).
No end group written: not given here.

Columns and labels:
[1] = test system: Vero E6 cells; conditions: 72 h
[2] = target: SARS-CoV-2 main protease (Mpro) (Severe acute respiratory syndrome coronavirus 2, UniProt P0DTD1); assay: biochemical
[3] = pH 5

Substance | CC50, cellular viability [1] | IC50 [2] | Solubility [3]
FVQWFSKFLGRIL-NH2 [Temporin L, reference compound] | 6.78 µM | 39 ± 4.5 µM | –
SAFWQWFSKFLGR-NH2 [TLP-3] | 14.91 µM | 7 ± 1.5 µM | limited peptide solubility
FLQWFSKFLGRIL-NH2 [TLP-1] | 4.65 µM | 11.4 ± 1.5 µM | limited peptide solubility
SAYWQWFSKFLGRIL-NH2 [TLP-2] | 2.56 µM | 11.5 ± 1 µM | limited peptide solubility
